Measurements taken from patent US20260356851A1, “TRICYCLIC COMPOUNDS AND USES THEREOF” (HUTCHMED LIMITED, priority 2023, published 2026).

Key:
Format in all cases: cell-based
[1] = biological target: T1, pERK1/2 (Thr202/Tyr204), NCI-1H441 (KRAS G12V) (Homo sapiens, UniProt P01116, G12V); experiment: Assay of intracellular pERK1/2 (Thr202/Tyr204) phosphorylation in NCI-H441 cells (KRAS G12V); settings: pERK1/2, 2 days, read-out: NCI-H441 (KRAS G12V) IC50
T1 construct: pERK1/2 HTRF read-out
Method in brief: (§1)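 Cells (10000-12000/well) exposed to 3-fold compound dilutions for 2 days at 37 °C, then lysed; pERK1/2 (Thr202/Tyr204) measured by HTRF with d2 and cryptate antibodies, 665/615 nm ratio.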

[2] = biological target: T2, pERK1/2 (Thr202/Tyr204), NCI-1H358 (KRAS G12C) (Homo sapiens, UniProt P01116, G12C); experiment: Assay of intracellular pERK1/2 (Thr202/Tyr204) phosphorylation in NCI-H358 cells (KRAS G12C); settings: pERK1/2, 2 days, read-out: NCI-H358 (KRAS G12C) IC50
T2 construct: pERK1/2 HTRF read-out
Method in brief: as §1

[3] = biological target: T3, pERK1/2 (Thr202/Tyr204), PANC-1 (KRAS G121D) (Homo sapiens, UniProt P01116, G12D); experiment: Assay of intracellular pERK1/2 (Thr202/Tyr204) phosphorylation in PANC-1 cells (KRAS G12D); settings: pERK1/2, 2 days, read-out: PANC-1 (KRAS G12D) IC50
T3 construct: pERK1/2 HTRF read-out
Method in brief: as §1

T2 sequence (P01116 1-188 isoform P01116-2 G12C): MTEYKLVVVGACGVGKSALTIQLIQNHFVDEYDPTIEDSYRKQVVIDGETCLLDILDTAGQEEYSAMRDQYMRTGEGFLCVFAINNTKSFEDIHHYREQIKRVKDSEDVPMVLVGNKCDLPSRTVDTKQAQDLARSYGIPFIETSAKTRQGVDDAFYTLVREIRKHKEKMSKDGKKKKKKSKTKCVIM
T3 sequence (P01116 1-188 isoform P01116-2 G12D): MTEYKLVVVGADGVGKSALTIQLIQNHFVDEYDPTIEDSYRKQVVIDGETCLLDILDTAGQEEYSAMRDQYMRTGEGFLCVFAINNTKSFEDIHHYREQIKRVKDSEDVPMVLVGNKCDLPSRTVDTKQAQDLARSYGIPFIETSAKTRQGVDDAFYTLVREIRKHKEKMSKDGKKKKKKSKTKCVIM
T1 sequence (P01116 1-188 isoform P01116-2 G12V): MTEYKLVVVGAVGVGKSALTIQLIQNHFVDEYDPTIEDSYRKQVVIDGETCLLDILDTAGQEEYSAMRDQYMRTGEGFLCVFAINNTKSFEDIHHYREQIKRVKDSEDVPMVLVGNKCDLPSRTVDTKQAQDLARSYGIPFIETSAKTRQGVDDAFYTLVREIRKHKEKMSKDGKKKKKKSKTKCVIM

Structure (SMILES)	IC50 [1] [nM]	IC50 [2] [nM]	IC50 [3] [nM]
CC(c1cccnc1N)N1CCOc2nc(-c3cc(N)cc(F)c3C(F)(F)F)c(F)c3nc(OC[C@@H]4C[C@@H](F)CN4C)nc1c23 (single isomer, unassigned) [Compound 92, 3-((R or S)-1-(5-(5-amino-3-fluoro-2-(trifluoromethyl)phenyl)-4-fluoro-2-(((2S,4R)-4-fluoro-1-methylpyrrolidin-2-yl)methoxy)-8,9-dihydro-10H-7-oxa-1,3,6,10-tetraazacyclohepta[de]naphthalen-10-yl)ethyl)pyridin-2-amine]	2	1	58
CC(c1cccnc1N)N1CCOc2nc(-c3cc(N)cc(F)c3C(F)(F)F)c(F)c3nc(OC[C@@H]4C[C@@H](F)CN4C)nc1c23 (single isomer, unassigned) [Compound 93, 3-((R or S)-1-(5-(5-amino-3-fluoro-2-(trifluoromethyl)phenyl)-4-fluoro-2-(((2S,4R)-4-fluoro-1-methylpyrrolidin-2-yl)methoxy)-8,9-dihydro-10H-7-oxa-1,3,6,10-tetraazacyclohepta[de]naphthalen-10-yl)ethyl)pyridin-2-amine]	> 100	> 100	> 100
[2H]C([2H])([2H])N1CCC[C@H]1COc1nc2c3c(nc(-c4cc(N)cc(C)c4C(F)(F)F)c(F)c3n1)OCCN2C(C)c1cccnc1N (single isomer, unassigned) [Compound 95, 3-((R or S)-1-(5-(5-amino-3-methyl-2-(trifluoromethyl)phenyl)-4-fluoro-2-(((S)-1-(methyl-d3)pyrrolidin-2-yl)methoxy)-8,9-dihydro-10H-7-oxa-1,3,6,10-tetraazacyclohepta[de]naphthalen-10-yl)ethyl)pyridin-2-amine]	2	0.8	24
[2H]C([2H])([2H])N1CCC[C@H]1COc1nc2c3c(nc(-c4cc(N)cc(C)c4C(F)(F)F)c(F)c3n1)OCCN2C(C)c1cccnc1N (single isomer, unassigned) [Compound 96, 3-((R or S)-1-(5-(5-amino-3-methyl-2-(trifluoromethyl)phenyl)-4-fluoro-2-(((S)-1-(methyl-d3)pyrrolidin-2-yl)methoxy)-8,9-]	57	27	> 100
CC(c1cccnc1N)N1CCOc2nc(-c3cc(N)cc(Cl)c3C(F)(F)F)c(F)c3nc(OC[C@@H]4CCCN4C)nc1c23 (single isomer, unassigned) [Compound 98, 3-((R or S)-1-(5-(5-amino-3-chloro-2-(trifluoromethyl)phenyl)-4-fluoro-2-(((S)-1-methylpyrrolidin-2-yl)methoxy)-8,9-dihydro-10H-7-oxa-1,3,6,10-tetraazacyclohepta[de]naphthalen-10-yl)ethyl)pyridin-2-amine]	0.5	0.3	10
CC(c1cccnc1N)N1CCOc2nc(-c3cc(N)cc(Cl)c3C(F)(F)F)c(F)c3nc(OC[C@@H]4CCCN4C)nc1c23 (single isomer, unassigned) [Compound 99, 3-((R or S)-1-(5-(5-amino-3-chloro-2-(trifluoromethyl)phenyl)-4-fluoro-2-(((S)-1-methylpyrrolidin-2-yl)methoxy)-8,9-dihydro-10H-7-oxa-1,3,6,10-tetraazacyclohepta[de]naphthalen-10-yl)ethyl)pyridin-2-amine]	33	27	> 100
[2H]C([2H])(Oc1nc2c3c(nc(-c4cc(N)cc(C)c4C(F)(F)F)c(F)c3n1)OCCN2C(C)c1cccnc1N)[C@@H]1CCC([2H])([2H])N1C([2H])([2H])[2H] (single isomer, unassigned) [Compound 102, 3-((R or S)-1-(5-(5-amino-3-methyl-2-(trifluoromethyl)phenyl)-4-fluoro-2-(((S)-1-(methyl-d3)pyrrolidin-2-yl-5,5-d2)methoxy-d2)-8,9-dihydro-10H-7-oxa-1,3,6,10-tetraazacyclohepta[de]naphthalen-10-yl)ethyl)pyridin-2-amine]	2	0.8	38
[2H]C([2H])(Oc1nc2c3c(nc(-c4cc(N)cc(C)c4C(F)(F)F)c(F)c3n1)OCCN2C(C)c1cccnc1N)[C@@H]1CCC([2H])([2H])N1C([2H])([2H])[2H] (single isomer, unassigned) [Compound 103, 3-((R or S)-1-(5-(5-amino-3-methyl-2-(trifluoromethyl)phenyl)-4-fluoro-2-(((S)-1-(methyl-d3)pyrrolidin-2-yl-5,5-d2)methoxy-d2)-8,9-dihydro-10H-7-oxa-1,3,6,10-tetraazacyclohepta[de]naphthalen-10-yl)ethyl)pyridin-2-amine]	> 100	60	> 100
[2H]C1([2H])CC[C@@]2(C([2H])([2H])Oc3nc4c5c(nc(-c6cc(N)cc(C)c6C(F)(F)F)c(F)c5n3)OCCN4C(C)c3cccnc3N)C[C@@H](F)CN12 (single isomer, unassigned) [Compound 115, 3-((R or S)-1-(5-(5-amino-3-methyl-2-(trifluoromethyl)phenyl)-4-fluoro-2-(((2R,7aS)-2-fluorotetrahydro-1H-pyrrolizin-7a(5H)-yl-5,5-d2)methoxy-d2)-8,9-dihydro-10H-7-oxa-1,3,6,10-tetraazacyclohepta[de]naphthalen-10-yl)ethyl)pyridin-2-amine]	0.2	0.2	0.9
[2H]C1([2H])CC[C@@]2(C([2H])([2H])Oc3nc4c5c(nc(-c6cc(N)cc(C)c6C(F)(F)F)c(F)c5n3)OCCN4C(C)c3cccnc3N)C[C@@H](F)CN12 (single isomer, unassigned) [Compound 116, 3-((R or S)-1-(5-(5-amino-3-methyl-2-(trifluoromethyl)phenyl)-4-fluoro-2-(((2R,7aS)-2-fluorotetrahydro-1H-pyrrolizin-7a(5H)-yl-5,5-d2)methoxy-d2)-8,9-dihydro-10H-7-oxa-1,3,6,10-tetraazacyclohepta[de]naphthalen-10-yl)ethyl)pyridin-2-amine]	9	4	23
Cc1cc(N)cc(-c2nc3c4c(nc(OCC5CCOCC5)nc4c2F)N(C(C)c2cccnc2N)CCO3)c1C(F)(F)F (single isomer, unassigned) [Compound 117, (R or S)-3-(1-(5-(5-amino-3-methyl-2-(trifluoromethyl)phenyl)-4-fluoro-2-((tetrahydro-2H-pyran-4-yl)methoxy)-8,9-dihydro-10H-7-oxa-1,3,6,10-tetraazacyclohepta[de]naphthalen-10-yl)ethyl)pyridin-2-amine]	36	26	> 100

Next, values leading:

IC50 [1] [nM]	IC50 [2] [nM]	IC50 [3] [nM]	Structure (SMILES)
> 100	93	> 100	Cc1cc(N)cc(-c2nc3c4c(nc(OC[C@]56CCCN5[C@@H](CO)CC6)nc4c2F)N([C@H](C)c2cccnc2N)CCO3)c1C(F)(F)F (single isomer, unassigned) [Compound 100, ((3R,7aR)-7a-(((5-(5-amino-3-methyl-2-(trifluoromethyl)phenyl)-10-((R or S)-1-(2-aminopyridin-3-yl)ethyl)-4-fluoro-9,10-dihydro-8H-7-oxa-1,3,6,10-tetraazacyclohepta[de]naphthalen-2-yl)oxy)methyl)hexahydro-1H-pyrrrolizin-3-yl)methanol]
> 100	> 100	> 100	Cc1cc(N)cc(-c2nc3c4c(nc(OC[C@]56CCCN5[C@@H](CO)CC6)nc4c2F)N(C(C)c2cccnc2N)CCO3)c1C(F)(F)F (single isomer, unassigned) [Compound 101, ((3R,7aR)-7a-(((5-(5-amino-3-methyl-2-(trifluoromethyl)phenyl)-10-((R or S)-1-(2-aminopyridin-3-yl)ethyl)-4-fluoro-9,10-dihydro-8H-7-oxa-1,3,6,10-tetraazacyclohepta[de]naphthalen-2-yl)oxy)methyl)hexahydro-1H-pyrrolizin-3-yl)methanol]
> 100	> 100	> 100	Cc1cc(N)cc(-c2nc3c4c(nc(OC[C@@H]5CCCN5)nc4c2F)N(C(C)c2cccnc2N)CCO3)c1C(F)(F)F (single isomer, unassigned) [Compound 106]
> 100	89	> 100	Cc1cc(N)cc(-c2nc3c4c(nc(N5CCC[C@H]5CO)nc4c2F)N(C(C)c2cccnc2N)CCO3)c1C(F)(F)F (single isomer, unassigned) [Compound 107]
2	0.9	41	Cc1cc(N)cc(-c2nc3c4c(nc(OC[C@H]5CCCN5C)nc4c2F)N(C(C)c2cccnc2N)CCO3)c1C(F)(F)F (single isomer, unassigned) [Compound 109, 3-((R or S)-1-(5-(5-amino-3-methyl-2-(trifluoromethyl)phenyl)-4-fluoro-2-(((R)-1-methylpyrrolidin-2-yl)methoxy)-8,9-dihydro-10H-7-oxa-1,3,6,10-tetraazacyclohepta[de]naphthalen-10-yl)ethyl)pyridin-2-amine]
> 100	> 100	> 100	Cc1cc(N)cc(-c2nc3c4c(nc(OC[C@H]5CCCN5C)nc4c2F)N(C(C)c2cccnc2N)CCO3)c1C(F)(F)F (single isomer, unassigned) [Compound 110, 3-((R or S)-1-(5-(5-amino-3-methyl-2-(trifluoromethyl)phenyl)-4-fluoro-2-(((R)-1-methylpyrrolidin-2-yl)methoxy)-8,9-dihydro-10H-7-oxa-1,3,6,10-tetraazacyclohepta[de]naphthalen-10-yl)ethyl)pyridin-2-amine]
